Results reported in patent publication US5616684A, “Cyclic peptides and use thereof” (priority 1991, dated 1997).
Where two headings read alike, the source gives them in different places. Non-standard residues stand in square brackets, D forms with d. Residues, ends and D or L forms follow the SMILES beside them.

Columns and labels:
[1] = amide bond
[2] = biological target: T1, endothelin receptor A (ETA) (Sus scrofa, UniProt Q29010); assay: Assay of Affinity for Receptor (1): Binding Activity on ETA Receptor; design: key to Binding Activity on ET Receptor (R. act.) ETA: relative binding activity; reference cyclic pentapeptide = 1.0; conditions: specific activity, binding activity of cyclo[-D-Glu-Ala-D-aIle-Leu-D-Trp-] taken as 1.0; porcine heart membrane fraction, 125I-labeled endothelin-1, 25° C., 1 hour
T1 construct: A membrane fraction prepared from the porcine heart; from tissue; host or cells: porcine heart membrane fraction
T1 sequence (Q29010 21-427): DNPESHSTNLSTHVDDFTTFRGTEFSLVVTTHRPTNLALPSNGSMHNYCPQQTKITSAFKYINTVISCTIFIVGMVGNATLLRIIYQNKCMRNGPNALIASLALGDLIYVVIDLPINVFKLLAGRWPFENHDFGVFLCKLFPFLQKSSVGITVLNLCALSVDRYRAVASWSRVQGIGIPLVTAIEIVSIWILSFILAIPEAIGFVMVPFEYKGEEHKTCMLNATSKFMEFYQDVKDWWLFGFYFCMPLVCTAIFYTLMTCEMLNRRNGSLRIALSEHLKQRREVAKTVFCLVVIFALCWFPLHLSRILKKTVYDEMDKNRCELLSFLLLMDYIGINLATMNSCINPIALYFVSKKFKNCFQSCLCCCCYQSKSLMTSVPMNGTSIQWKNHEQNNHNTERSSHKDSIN
Experimental: Assay of Affinity for Receptor (1) . . . Binding Activity on ETA Receptor
A membrane fraction prepared from the porcine heart was diluted to 0.15 mg/ml by using a buffer solution for assay, and 100 μl of the resulting suspension of the membrane fraction was poured into each assay tube to use for assay. To this suspension of the membrane fraction was added 2 μl of 5 nM ^125 I-labeled endothelin-1 solution. Further, 3 μl of a test peptide solution was added thereto, followed by incubation at a temperature of 25° C. for 1 hour. Then, the resulting suspension was diluted with 900 μl of the buffer solution for assay cooled with ice, and thereafter separated into a supernatant and a precipitate by centrifugation at 12,000×g for 10 minutes. Cell membranes and an endothelin receptor A (ETA) embedded therein were contained in the precipitate, and radioactive iodine-labeled endothelin combined with the receptor was also recovered in the precipitate. Accordingly, the amount of radioactive iodine-labeled endothelin combined with the endothelin receptor A (ETA) was determined by measuring the amount of radioactive iodine contained in the precipitate with a gamma-ray counter. The cyclic pentapeptide described in Japanese Patent Application No. 2-413828/1990, cyclo[-D-Glu-Ala-D-aIle-Leu-D-Trp-], was used as a control compound. The numerical value of ETA shown in Table 1 is the value of specific activity, taking the binding activity of this cyclic pentapeptide on the receptor A as 1.0. The binding activity (IC50) of this cyclic pentapeptide on the ETA receptor is 2×10^-6 M.

[3] = tested on: ETB receptor (guinea pig kidney crude receptor membrane fraction); assay: ETB Radio Receptor Assay *2; assay type: binding; conditions: relative activity (Example 8 given as 100), 125I-endothelin-1, 37° C., 90 minutes
Experimental: ETB Radio Receptor Assay *2
In the endothelin radio receptor assay, guinea pigs' kidneys were used. Guinea pigs (Std Hartrey, male 250 g, Japan SLC Ltd.) were made to have a cerebral concussion and sacrificed by bleeding from carotid arteries to pick up the kidneys and removed fat therefrom to prepare the kidneys. The obtained kidneys were sliced and homogenized by politron homogenizer in 20 ml of 50 mM Tris-HCl buffer [pH 7.4; 20 mM NaHCO3, 0.1 mM PMSF (Phenylmethylsulfonyl Fluoride), 1 mM EDTA (Ethylenediaminetetraacetic acid)] per one kidney. The homogenized kidney was applied to a centrifugation at 1,000×g for 15 minutes and the supernatant was further applied to a centrifugation for 20 minutes at 30,000×g. The resulting precipitate was twice washed with 50 mM Tris-HCl buffer (pH 7.4) containing 0.1 mM PMSF, 1 mM EDTA. The resultant was stored at -80 ° C. as a crude receptor membrane fraction and was used as the suspension in the following buffer when necessary.
740 Bq of ^125 I-endothelin-1 (81.4 TBq/mmol, Du Pont, USA) as a radio ligand, the crude membrane fraction (2.1 μg protein) and samples were added to the following buffer. The reaction was performed at 37° C., for 90 minutes in 0.2 ml of the buffer [50 mM Tris-HCl buffer (pH 7.4) containing 0.1 mM PMSF, 1 mM EDTA, 0.2% bovine serum albumin].
The reaction was stopped by fast filtration on a glass filter (GF/B, Wattman, USA) by Cell Harvestor (290 PHD, Cambridge-Technology, Great Britain), and the filter was three times washed with 50 mM Tris-HCl buffer (pH 7.4). Radio activity remained on the filter was assayed by a gamma counter.

CC(C)C[C@@H]1NC(=O)[C@@H](CC(C)C)NC(=O)[C@H](CC(=O)O)NC(=O)[C@H](CCCNC(=O)Cc2ccccc2)NC(=O)[C@@H](CC(=O)O)NC(=O)[C@@H](Cc2c[nH]c3ccccc23)NC1=O [cyclo[-D-Asp-Orn(COCH2 Ph)-Asp-D-Leu-Leu-D-Trp-]]
ring closure, yield of all isomers ([1]; from CC(C)C[C@H](NC(=O)[C@@H](CC(C)C)NC(=O)[C@H](CC(=O)OCc1ccccc1)NC(=O)[C@H](CCCNC(=O)Cc1ccccc1)NC(=O)OC(C)(C)C)C(=O)N[C@H](Cc1c[nH]c2ccccc12)C(=O)N[C@H](CC(=O)OCc1ccccc1)C(=O)O, HONB/DCC (active ester), TEA, DMF, 4.66 mM, 4 steps): 2.9%

CC(C)C[C@@H]1NC(=O)[C@@H](CC(C)C)NC(=O)[C@H](CC(=O)O)NC(=O)[C@H](CCCNC(=O)Cc2c[nH]c3ccccc23)NC(=O)[C@@H](CC(=O)O)NC(=O)[C@@H](Cc2c[nH]c3ccccc23)NC1=O [cyclo[-D-Asp-Orn(COCH2 -Ind)-Asp-D-Leu-Leu-D-Trp-]]
ring closure, yield of all isomers ([1]; from CC(C)C[C@H](NC(=O)[C@@H](CC(C)C)NC(=O)[C@H](CC(=O)OCc1ccccc1)NC(=O)[C@H](CCCNC(=O)Cc1c[nH]c2ccccc12)NC(=O)OC(C)(C)C)C(=O)N[C@H](Cc1c[nH]c2ccccc12)C(=O)N[C@H](CC(=O)OCc1ccccc1)C(=O)O, 4 steps): 12.5%

CC(C)C[C@@H]1NC(=O)[C@@H](c2cccs2)NC(=O)[C@H](CC(=O)OCc2ccccc2)NC(=O)[C@H](CC(=O)NCCc2c[nH]c3ccccc23)NC(=O)[C@@H](CC(=O)OCc2ccccc2)NC(=O)[C@@H](Cc2c[nH]c3ccccc23)NC1=O
ring closure, yield of all isomers ([1]; from CC(C)C[C@H](NC(=O)[C@H](NC(=O)[C@H](CC(=O)OCc1ccccc1)NC(=O)[C@H](CC(=O)NCCc1c[nH]c2ccccc12)NC(=O)[C@@H](CC(=O)OCc1ccccc1)NC(=O)[C@@H](Cc1c[nH]c2ccccc12)NC(=O)OC(C)(C)C)c1cccs1)C(=O)O, HONB/DCC (active ester), then diisopropylethylamine, DMF, 4.75 mM, 3 steps): 90.4%

CC(C)C[C@@H]1NC(=O)[C@@H](CC(C)C)NC(=O)[C@H](C)NC(=O)[C@H](CC(=O)O)NC(=O)[C@@H](CC(=O)O)NC(=O)[C@@H](Cc2c[nH]c3ccccc23)NC1=O [cyclo[-D-Asp-Asp-Ala-D-Leu-Leu-D-Trp-]]
ring closure, yield of all isomers ([1]; from CC(C)C[C@H](NC(=O)[C@@H](CC(C)C)NC(=O)[C@H](C)NC(=O)[C@H](CC(=O)OCc1ccccc1)NC(=O)[C@@H](CC(=O)OCc1ccccc1)NC(=O)[C@@H](Cc1c[nH]c2ccccc12)NC(=O)OC(C)(C)C)C(=O)O, HONB/DCC (active ester), TEA, DMF, 5.04 mM, 16.0 h, 4 steps): 17.8%

CC(C)C[C@@H]1NC(=O)[C@@H](CC(C)C)NC(=O)[C@H](C)NC(=O)CNC(=O)[C@@H](CC(=O)O)NC(=O)[C@@H](Cc2c[nH]c3ccccc23)NC1=O [cyclo[-D-Asp-Gly-Ala-D-Leu-Leu-D-Trp-]]
ring closure, yield of all isomers ([1]; from CC(C)C[C@H](NC(=O)[C@@H](CC(C)C)NC(=O)[C@H](C)NC(=O)CNC(=O)[C@@H](CC(=O)OCc1ccccc1)NC(=O)[C@@H](Cc1c[nH]c2ccccc12)NC(=O)OC(C)(C)C)C(=O)O, HONB/DCC (active ester), TEA, DMF, 5.9 mM, 16.0 h, 4 steps): 19.2%

CC(C)C[C@@H]1NC(=O)[C@@H](CC(C)C)NC(=O)[C@H](C)NC(=O)[C@H](CCC(=O)O)NC(=O)[C@@H](CC(=O)O)NC(=O)[C@@H](Cc2c[nH]c3ccccc23)NC1=O [cyclo[-D-Asp-Glu-Ala-D-Leu-Leu-D-Trp-]]
ring closure, yield of all isomers ([1]; from CC(C)C[C@H](NC(=O)[C@@H](CC(C)C)NC(=O)[C@H](C)NC(=O)[C@H](CCC(=O)OCc1ccccc1)NC(=O)[C@@H](CC(=O)OCc1ccccc1)NC(=O)[C@@H](Cc1c[nH]c2ccccc12)NC(=O)OC(C)(C)C)C(=O)O, HONB/DCC (active ester), TEA, DMF, 4.97 mM, 16.0 h, 4 steps): 20.6%

CC(C)C[C@@H]1NC(=O)[C@@H](CC(C)C)NC(=O)[C@H](CCC(=O)O)NC(=O)[C@H](C)NC(=O)[C@@H](CC(=O)O)NC(=O)[C@@H](Cc2c[nH]c3ccccc23)NC1=O [cyclo[-D-Asp-Ala-Glu-D-Leu-Leu-D-Trp-]]
ring closure, yield of all isomers ([1]; from CC(C)C[C@H](NC(=O)[C@@H](CC(C)C)NC(=O)[C@H](CCC(=O)OCc1ccccc1)NC(=O)[C@H](C)NC(=O)[C@@H](CC(=O)OCc1ccccc1)NC(=O)[C@@H](Cc1c[nH]c2ccccc12)NC(=O)OC(C)(C)C)C(=O)O, HONB/DCC (active ester), TEA, DMF, 4.97 mM, 16.0 h, 4 steps): 24.1%

CC(C)C[C@@H]1NC(=O)[C@@H](C(C)(C)C)NC(=O)[C@H](CC(=O)O)NC(=O)[C@H](Cc2c[nH]c3ccccc23)NC(=O)[C@@H](CC(=O)O)NC(=O)[C@@H](Cc2c[nH]c3ccccc23)NC1=O [cyclo[-D-Asp-Trp-Asp-D-tLeu-Leu-D-Trp-]]
ring closure, yield of all isomers ([1]; from CC(C)C[C@H](NC(=O)[C@H](NC(=O)OC(C)(C)C)C(C)(C)C)C(=O)N[C@H](Cc1c[nH]c2ccccc12)C(=O)N[C@H](CC(=O)OCc1ccccc1)C(=O)N[C@@H](Cc1c[nH]c2ccccc12)C(=O)N[C@@H](CC(=O)OCc1ccccc1)C(=O)O, HONB/DCC (active ester), then TEA, DMF, 5.03 mM, 16.0 h, 4 steps): 42.8%

CC(C)C[C@@H]1NC(=O)[C@@H](CC(C)C)NC(=O)[C@H](CC(=O)O)NC(=O)[C@H](CCCNC(=O)CCc2ccccc2)NC(=O)[C@@H](CC(=O)O)NC(=O)[C@@H](Cc2c[nH]c3ccccc23)NC1=O [cyclo[-D-Asp-Orn(COCH2 CH2 Ph)-Asp-D-Leu-Leu-D-Trp-]]
ring closure, yield of all isomers ([1]; from CC(C)C[C@H](NC(=O)[C@@H](CC(C)C)NC(=O)[C@H](CC(=O)OCc1ccccc1)NC(=O)[C@H](CCCNC(=O)CCc1ccccc1)NC(=O)OC(C)(C)C)C(=O)N[C@H](Cc1c[nH]c2ccccc12)C(=O)N[C@H](CC(=O)OCc1ccccc1)C(=O)O, HONB/DCC (active ester), TEA, DMF, 5.05 mM, 16.0 h, 4 steps): 40.9%

CC(C)C[C@@H]1NC(=O)[C@@H](CC(C)C)NC(=O)[C@H](CC(=O)O)NC(=O)[C@H](CC(=O)NCCc2ccccc2)NC(=O)[C@@H](CC(=O)O)NC(=O)[C@@H](Cc2c[nH]c3ccccc23)NC1=O [cyclo[-D-Asp-Asn(CH2 CH2 Ph)-Asp-D-Leu-Leu-D-Trp-]]
ring closure, yield of all isomers ([1]; from CC(C)C[C@H](NC(=O)[C@@H](CC(C)C)NC(=O)[C@H](CC(=O)OCc1ccccc1)NC(=O)[C@H](CC(=O)NCCc1ccccc1)NC(=O)[C@@H](CC(=O)OCc1ccccc1)NC(=O)[C@@H](Cc1c[nH]c2ccccc12)NC(=O)OC(C)(C)C)C(=O)O, HONB/DCC (ONB active ester), then TEA, DMF, 3.46 mM, 16.0 h, 4 steps): 24.1%

CC(C)C[C@@H]1NC(=O)[C@@H](CC(C)C)NC(=O)[C@H](CC(=O)O)NC(=O)[C@H](Cc2c[nH]cn2)NC(=O)[C@@H](CC(=O)O)NC(=O)[C@@H](Cc2c[nH]c3ccccc23)NC1=O [Example 83, Cyclo[--D--Asp--His--Asp--D--Leu--Leu--D--Trp--]] (cyclo(D[dL]L[dW][dD]H))
Binding Activity on ET Receptor (R. act.) ETA [2]: 15
Binding Activity on ET Receptor (R. act.) ET8 *2 [3]: 43
